Data from US10004701B2, “Methods and compositions for treating infection” (UNIVERSITY OF ROCHESTER, priority 2012, dated 2018).
Structures can show the parent of a compound that is named as a salt. Where two headings read alike, the source gives them in different places.

Experiments:
Assay in all cases: AK assay 384-well format, Prestwick library screening
[1] = tested on: A. baumannii strain 98-37-09; type: cell-based, Acinetobacter baumannii; details: 50 μM final drug concentration, cutoff for positive-scoring molecules 3-fold increase; for fold induction at 50 µM: Acinetobacter baumannii, 983709, 3 h
[2] = tested on: S. aureus strain USA300-0114; type: cell-based, Staphylococcus aureus; details: 50 μM final drug concentration, cutoff for positive-scoring molecules 3-fold increase; for fold induction at 50 µM: Staphylococcus aureus, USA300, 3 h
K. pneumoniae = type: cell-based, Klebsiella pneumoniae; details: 50 μM final drug concentration, cutoff for positive-scoring molecules 3-fold increase; for fold induction at 50 µM: Klebsiella pneumoniae, 3 h
P. aeruginosa = type: cell-based, Pseudomonas aeruginosa; details: 50 μM final drug concentration, cutoff for positive-scoring molecules 3-fold increase; for fold induction at 50 µM: Pseudomonas aeruginosa, 3 h
E. faecium = type: cell-based, Enterococcus faecium; details: 50 μM final drug concentration, cutoff for positive-scoring molecules 3-fold increase; for fold induction at 50 µM: Enterococcus faecium, 3 h
E. coli = type: cell-based, Escherichia coli; details: 50 μM final drug concentration; for fold induction at 50 µM: Escherichia coli, 3 h
E. cloacae = type: cell-based, Enterobacter cloacae; details: 50 μM final drug concentration, cutoff for positive-scoring molecules 3-fold increase; for fold induction at 50 µM: Enterobacter cloacae, 3 h
[3] = planktonic A. baumannii, 384-well, read-out: AK-based Prestwick Library Screening Results: A. baumannii (increase in extracellular AK activity)
[4] = planktonic S. aureus, 384-well, read-out: AK-based Prestwick Library Screening Results: S. aureus (increase in extracellular AK activity)
[5] = planktonic K. pneumoniae, 384-well, read-out: AK-based Prestwick Library Screening Results: K. pneumoniae (increase in extracellular AK activity)
[6] = planktonic P. aeruginosa, 384-well, read-out: AK-based Prestwick Library Screening Results: P. aeruginosa (increase in extracellular AK activity)
[7] = planktonic E. faecium, 384-well, read-out: AK-based Prestwick Library Screening Results: E. faecium (increase in extracellular AK activity)
[8] = planktonic E. coli, 384-well, cutoff for positive-scoring molecules 3-fold increase, read-out: AK-based Prestwick Library Screening Results: E. coli (increase in extracellular AK activity)
[9] = planktonic E. cloacae, 384-well, read-out: AK-based Prestwick Library Screening Results: E. cloacae (increase in extracellular AK activity)
[10] = planktonic, read-out: AK-based Prestwick Library Screening Results, A. baumannii (fold increase in extracellular AK activity)
[11] = planktonic, read-out: AK-based Prestwick Library Screening Results, S. aureus (fold increase in extracellular AK activity)
[12] = planktonic, read-out: AK-based Prestwick Library Screening Results, K. pneumoniae (fold increase in extracellular AK activity)
[13] = planktonic, read-out: AK-based Prestwick Library Screening Results, P. aeruginosa (fold increase in extracellular AK activity)
[14] = planktonic, read-out: AK-based Prestwick Library Screening Results, E. faecium (fold increase in extracellular AK activity)
[15] = planktonic, cutoff for positive-scoring molecules 3-fold increase, read-out: AK-based Prestwick Library Screening Results, E. coli (fold increase in extracellular AK activity)
[16] = planktonic, read-out: AK-based Prestwick Library Screening Results, E. cloacae (fold increase in extracellular AK activity)
[17] = 384-well format, read-out: AK-based Prestwick Library Screening Results, A. baumannii (increase in extracellular AK activity)
[18] = 384-well format, read-out: AK-based Prestwick Library Screening Results, S. aureus (increase in extracellular AK activity)
[19] = 384-well format, read-out: AK-based Prestwick Library Screening Results, K. pneumoniae (increase in extracellular AK activity)
[20] = 384-well format, read-out: AK-based Prestwick Library Screening Results, P. aeruginosa (increase in extracellular AK activity)
[21] = 384-well format, read-out: AK-based Prestwick Library Screening Results, E. faecium (increase in extracellular AK activity)
[22] = 384-well format, cutoff for positive-scoring molecules 3-fold increase, read-out: AK-based Prestwick Library Screening Results, E. coli (increase in extracellular AK activity)
[23] = 384-well format, read-out: AK-based Prestwick Library Screening Results, E. cloacae (increase in extracellular AK activity)

With O=C1C(CC[S+]([O-])c2ccccc2)C(=O)N(c2ccccc2)N1c1ccccc1 (centres unmarked) [Sulfinpyrazone] the fold induction at 50 µM [1, 3] was 1.2, the fold induction at 50 µM [2, 4] was 3.5 and the fold induction at 50 µM (K. pneumoniae; [5]) was 1. For the same molecule, the fold induction at 50 µM (P. aeruginosa; [6]) was 1, the fold induction at 50 µM (E. faecium; [7]) was 1.1 and the fold induction at 50 µM (E. coli; [8]) was 1.3. It also gave a fold induction at 50 µM (E. cloacae; [9]) of 1.2.
NC(=O)c1cc[n+](CC2=C(C(=O)O)N3C(=O)[C@@H](NC(=O)[C@@H](c4ccccc4)S(=O)(=O)[O-])[C@H]3SC2)cc1 [Cefsulodin sodium salt] gave a fold induction at 50 µM [1, 10] of 1.1, a fold induction at 50 µM [2, 11] of 1 and a fold induction at 50 µM (K. pneumoniae; [12]) of 0.7. The fold induction at 50 µM (P. aeruginosa; [13]) was 8.6, the fold induction at 50 µM (E. faecium; [14]) was 0.9 and the fold induction at 50 µM (E. coli; [15]) was 0.9. It also gave a fold induction at 50 µM (E. cloacae; [16]) of 0.9.
Cn1nnnc1SCC1=C(C(=O)O)N2C(=O)[C@@H](NC(=O)[C@H](O)c3ccccc3)[C@H]2SC1 [Cefamandole sodium salt] showed a fold induction at 50 µM [1, 10] of 0.6, a fold induction at 50 µM [2, 11] of 1.3 and a fold induction at 50 µM (K. pneumoniae; [12]) of 2.3. The fold induction at 50 µM (P. aeruginosa; [13]) was 0.7, the fold induction at 50 µM (E. faecium; [14]) was 0.9 and the fold induction at 50 µM (E. coli; [15]) was 10.5. The fold induction at 50 µM (E. cloacae; [16]) was 0.9.
COc1ccc(Cl)cc1C(=O)NCCc1ccc(S(=O)(=O)NC(=O)NC2CCCCC2)cc1 [Glibenclamide] was tested, and the fold induction at 50 µM [1, 3] was 1.3, the fold induction at 50 µM [2, 4] was 0.9 and the fold induction at 50 µM (K. pneumoniae; [5]) was 1.1. The fold induction at 50 µM (P. aeruginosa; [6]) was 1.2, the fold induction at 50 µM (E. faecium; [7]) was 1 and the fold induction at 50 µM (E. coli; [8]) was 1.2. For the same molecule, the fold induction at 50 µM (E. cloacae; [9]) was 1.4.
Cl.OC1CCCCC1N1CCC(c2ccccc2)CC1 (stereo not drawn) [L(−)-vesamicol hydrochloride] was tested, and the “AK-based Prestwick Library Screening Results, A. baumannii (fold increase in extracellular AK activity)” value ([1]; planktonic) was 0.8, the “AK-based Prestwick Library Screening Results, S. aureus (fold increase in extracellular AK activity)” value ([2]; planktonic) was 0.8 and the “AK-based Prestwick Library Screening Results, K. pneumoniae (fold increase in extracellular AK activity)” value (K. pneumoniae; planktonic) was 0.7. The “AK-based Prestwick Library Screening Results, P. aeruginosa (fold increase in extracellular AK activity)” value (P. aeruginosa; planktonic) was 0.8, the “AK-based Prestwick Library Screening Results, E. faecium (fold increase in extracellular AK activity)” value (E. faecium; planktonic) was 0.9 and the “AK-based Prestwick Library Screening Results, E. coli (fold increase in extracellular AK activity)” value (E. coli; planktonic, cutoff for positive-scoring molecules 3-fold increase) was 0.8. For the same molecule, the “AK-based Prestwick Library Screening Results, E. cloacae (fold increase in extracellular AK activity)” value (E. cloacae; planktonic) was 1.2.
In the case of COc1cc2cc3c4cc(OC)c(OC)cc4cc[n+]3c(C)c2cc1OC.O.[Cl-] [Coralyne chloride hydrate], the “AK-based Prestwick Library Screening Results, A. baumannii (increase in extracellular AK activity)” value ([1]; planktonic A. baumannii) is reported as 0.8, the “AK-based Prestwick Library Screening Results, S. aureus (increase in extracellular AK activity)” value ([2]; planktonic S. aureus) is reported as 0.4 and the “AK-based Prestwick Library Screening Results, K. pneumoniae (increase in extracellular AK activity)” value (K. pneumoniae; planktonic K. pneumoniae) is reported as 0.6. The “AK-based Prestwick Library Screening Results, P. aeruginosa (increase in extracellular AK activity)” value (P. aeruginosa; planktonic P. aeruginosa) was 0.8, the “AK-based Prestwick Library Screening Results, E. faecium (increase in extracellular AK activity)” value (E. faecium; planktonic E. faecium) was 0.9 and the “AK-based Prestwick Library Screening Results, E. coli (increase in extracellular AK activity)” value (E. coli; planktonic E. coli) was 0.9. For the same molecule, the “AK-based Prestwick Library Screening Results, E. cloacae (increase in extracellular AK activity)” value (E. cloacae; planktonic E. cloacae) was 1.1.
In the case of CN1[C@@H](C[C@@H](O)c2ccccc2)CCC[C@H]1C[C@H](O)c1ccccc1.Cl [Lobelanidine hydrochloride], the “AK-based Prestwick Library Screening Results, A. baumannii (increase in extracellular AK activity)” value ([1]; planktonic A. baumannii) is reported as 1.0, the “AK-based Prestwick Library Screening Results, S. aureus (increase in extracellular AK activity)” value ([2]; planktonic S. aureus) is reported as 0.6 and the “AK-based Prestwick Library Screening Results, K. pneumoniae (increase in extracellular AK activity)” value (K. pneumoniae; planktonic K. pneumoniae) is reported as 0.8. For the same molecule, the “AK-based Prestwick Library Screening Results, P. aeruginosa (increase in extracellular AK activity)” value (P. aeruginosa; planktonic P. aeruginosa) was 1.0, the “AK-based Prestwick Library Screening Results, E. faecium (increase in extracellular AK activity)” value (E. faecium; planktonic E. faecium) was 0.9 and the “AK-based Prestwick Library Screening Results, E. coli (increase in extracellular AK activity)” value (E. coli; planktonic E. coli) was 1.0. The “AK-based Prestwick Library Screening Results, E. cloacae (increase in extracellular AK activity)” value (E. cloacae; planktonic E. cloacae) was 1.0.
Molecule CC(=O)OCC(=O)[C@@]1(O)[C@H](C)C[C@H]2[C@@H]3CCC4=CC(=O)C=C[C@]4(C)[C@@]3(F)[C@@H](O)C[C@@]21C [Dexamethasone acetate] has a fold induction at 50 µM [1, 3] of 1.1, a fold induction at 50 µM [2, 4] of 1.2 and a fold induction at 50 µM (K. pneumoniae; [5]) of 1.1. The fold induction at 50 µM (P. aeruginosa; [6]) was 1, the fold induction at 50 µM (E. faecium; [7]) was 1.2 and the fold induction at 50 µM (E. coli; [8]) was 1.4. The fold induction at 50 µM (E. cloacae; [9]) was 1.2.
O=c1[nH]c(=O)n([C@H]2C[C@H](O)[C@@H](CO)O2)cc1I [Idoxuridine] gave a fold induction at 50 µM [1, 17] of 0.7, a fold induction at 50 µM [2, 18] of 0.7 and a fold induction at 50 µM (K. pneumoniae; [19]) of 0.6. For the same molecule, the fold induction at 50 µM (P. aeruginosa; [20]) was 0.6, the fold induction at 50 µM (E. faecium; [21]) was 1 and the fold induction at 50 µM (E. coli; [22]) was 0.7. For the same molecule, the fold induction at 50 µM (E. cloacae; [23]) was 0.8.
With Nc1ccc(S(=O)(=O)Nc2ccc(Cl)nn2)cc1 [Sulfachloropyridazine] the fold induction at 50 µM ([1]; read-out: AK-based Prestwick Library Screening Results, A. baumannii (fold increase in extracellular AK activity)) was 2.1, the fold induction at 50 µM ([2]; read-out: AK-based Prestwick Library Screening Results, S. aureus (fold increase in extracellular AK activity)) was 1.1 and the fold induction at 50 µM (K. pneumoniae; read-out: AK-based Prestwick Library Screening Results, K. pneumoniae (fold increase in extracellular AK activity)) was 1.1. It also gave a fold induction at 50 µM (P. aeruginosa; read-out: AK-based Prestwick Library Screening Results, P. aeruginosa (fold increase in extracellular AK activity)) of 1, a fold induction at 50 µM (E. faecium; read-out: AK-based Prestwick Library Screening Results, E. faecium (fold increase in extracellular AK activity)) of 1 and a fold induction at 50 µM (E. coli; cutoff for positive-scoring molecules 3-fold increase, read-out: AK-based Prestwick Library Screening Results, E. coli (fold increase in extracellular AK activity)) of 1. It also gave a fold induction at 50 µM (E. cloacae; read-out: AK-based Prestwick Library Screening Results, E. cloacae (fold increase in extracellular AK activity)) of 1.5.
Work on C#C[C@]1(O)CC[C@H]2[C@@H]3CCC4=C(CCC(=O)C4)[C@H]3CC[C@@]21C [Norethynodrel] yielded a fold induction at 50 µM [1, 17] of 0.7, a fold induction at 50 µM [2, 18] of 0.7 and a fold induction at 50 µM (K. pneumoniae; [19]) of 0.7. For the same molecule, the fold induction at 50 µM (P. aeruginosa; [20]) was 0.8, the fold induction at 50 µM (E. faecium; [21]) was 0.9 and the fold induction at 50 µM (E. coli; [22]) was 0.9. For the same molecule, the fold induction at 50 µM (E. cloacae; [23]) was 1.
